Patent US11008323B2, “Substituted tricyclic 1,4-benzodiazepinone derivatives as allosteric modulators of group II metabotropic glutamate receptors” (Domain Therapeutics, priority 2015, dated 2021)

Molecular target: T1, human mGluR3 (hmGluR3) (Homo sapiens, UniProt Q14832)
T1 construct: expressed in transfected cells; host or cells: HEK-293 cells, transient co-transfection by electroporation
Assay: Human mGluR3 positive allosteric modulator evaluation using Ca++ functional assay
Format: cell-based
Conditions: hmGluR3 transiently over-expressed in HEK-293 cells; stimulated by EC50 glutamate concentration; intracellular Ca2+ (Fluo4AM, FLIPR Tetra)
Experimental: Compounds of the present invention were tested successively for their agonist and positive allosteric modulator activities on human mGluR3 (hmGluR3) transiently over-expressed in HEK-293 cells. Compounds exert agonist activity if they are able to activate hmGluR3 by themselves, i.e., in absence of the endogenous agonist glutamate; and they exert positive allosteric modulator activity if they increase the action of the endogenous agonist glutamate.
HEK-293 cells were maintained in Modified Eagle's Medium supplemented with 10% Foetal Calf Serum, 1% Penicillin/Streptomycin and 1% non-essential amino acids at 37° C./5% CO2.
Cells were co-transfected by electroporation with four DNA plasmids encoding hmGluR3, a chimeric G protein allowing redirection of the activation signal toward intracellular calcium pathway, and two glutamate transporters so as to decrease extracellular glutamate levels and avoid receptor desensitization (Brabet I et al., Neuropharmacology 37(8), 1043-51, 1998). After transfection, cells were seeded in 75 cm^2 culture flasks, and cultured for 24 h.
Receptor activity was detected by changes in intracellular calcium measured using the fluorescent Ca^2+ sensitive dye, Fluo4AM (Molecular Probes).
The day of the assay, medium was aspirated and replaced during 3 hrs by freshly prepared buffer B (HBSS 1×, Hepes 20 mM, MgSO4-7H2O 1 mM, Na2CO3 3.3 mM, CaCl2-2H2O 1.3 mM, 0.5% BSA, Probenecid 2.5 mM). Then, cells were loaded at 37° C./5% CO2 for 1.5 hrs with buffer B containing 1 μM Fluo4AM, 0.1 mg/mL Pluronic Acid, 7 μg/mL Glutamate Pyruvate Transaminase and 2 mM sodium pyruvate. Afterwards cells were washed with buffer B. Cells were then detached from the 75 cm^2 culture flasks with Accutase® (5 min incubation at 37° C.), centrifuged (5 min at 840 rpm), resuspended in buffer B and finally seeded at a density of 30,000 cells/well in black-walled clear-bottom 384-well plates. Addition of compounds on cells and intracellular Ca^2+ measurements (excitation 485 nm, emission 525 nm) were performed by the fluorescence microplate reader FLIPR Tetra (Molecular Devices).
Agonist and positive allosteric modulator activities of compounds were consecutively evaluated on the same cells plate. Agonist activity was first tested during 10 min with the addition of compound alone on the cells. Then, the cells were stimulated by an EC50 glutamate concentration and fluorescence was recorded for additional 3 min. EC50 glutamate concentration is the concentration giving 50% of the maximal glutamate response. Agonist and/or positive allosteric modulator activity(ies) were evaluated in comparison to basal signal or signal evoked by EC50 glutamate concentration alone, respectively.
For potency determination, a dose-response test was performed using 20 concentrations of each compound of the invention. Dose-response curves were fitted using the sigmoïdal dose-response (variable slope) analysis in XLfit Scientific Curve Fitting for Excel (IDBS). EC50 of agonist/EC50 of positive allosteric modulator activity(ies) were calculated. Dose-response experiments were all performed in duplicate, two times independently.

T1 sequence (Q14832 23-879): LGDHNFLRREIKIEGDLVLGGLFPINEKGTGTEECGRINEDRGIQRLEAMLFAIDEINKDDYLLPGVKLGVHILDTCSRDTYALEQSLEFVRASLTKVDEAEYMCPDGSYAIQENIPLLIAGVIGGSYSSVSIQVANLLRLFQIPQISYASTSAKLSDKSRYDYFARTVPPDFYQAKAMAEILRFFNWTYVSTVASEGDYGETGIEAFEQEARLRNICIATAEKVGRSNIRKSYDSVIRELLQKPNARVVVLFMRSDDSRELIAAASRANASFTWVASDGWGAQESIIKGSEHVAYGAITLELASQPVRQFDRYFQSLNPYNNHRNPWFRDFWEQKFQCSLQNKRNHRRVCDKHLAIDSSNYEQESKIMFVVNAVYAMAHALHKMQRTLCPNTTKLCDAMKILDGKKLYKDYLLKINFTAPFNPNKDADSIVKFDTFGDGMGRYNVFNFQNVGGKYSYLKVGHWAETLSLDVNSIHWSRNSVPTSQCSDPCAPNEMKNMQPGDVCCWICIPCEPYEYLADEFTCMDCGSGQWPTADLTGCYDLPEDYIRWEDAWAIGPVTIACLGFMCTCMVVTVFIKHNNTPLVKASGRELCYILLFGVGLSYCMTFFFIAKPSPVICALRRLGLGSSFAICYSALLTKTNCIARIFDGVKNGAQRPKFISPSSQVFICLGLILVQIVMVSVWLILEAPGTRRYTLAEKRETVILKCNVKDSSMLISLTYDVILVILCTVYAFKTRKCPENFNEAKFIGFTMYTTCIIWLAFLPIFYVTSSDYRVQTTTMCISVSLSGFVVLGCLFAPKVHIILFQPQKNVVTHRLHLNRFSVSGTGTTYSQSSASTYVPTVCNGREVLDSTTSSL

| SMILES | EC50 [nM] |
| --- | --- |
| Cc1cc2n(c1)-c1cc(-c3cccnc3C)ccc1C1(CC1)N(C)C2=O [Example 144] | < 100 |
| Cc1ncccc1-c1ccc2c(c1)-n1cc(-c3cc[nH]n3)cc1C(=O)N(C)C21CC1 [Example 146] | < 100 |
| Cc1ncccc1-c1ccc2c(c1)-n1cc(N(C)C)cc1C(=O)N(C)C21CC1 [Example 154] | 100 to 1000 |
| Cc1ncccc1-c1ccc2c(c1)-n1cc(C3CC3)cc1C(=O)N(C)C21CC1 [Example 155] | < 100 |
| Cc1ncccc1-c1ccc2c(c1)-n1cc(C3CCCC3)cc1C(=O)N(C)C21CC1 [Example 156] | 100 to 1000 |
| Cc1ncccc1-c1ccc2c(c1)-n1cc(-c3nccs3)cc1C(=O)N(C)C21CC1 [Example 157] | < 100 |
| Cc1ccc(-c2ccc3c(c2)-n2cc(-c4nccs4)cc2C(=O)N(C)C32CC2)cn1 [Example 158] | < 100 |
| Cc1ccc(-c2ccc3c(c2)-n2cc(-c4ccnn4C)cc2C(=O)N(C)C32CC2)cn1 [Example 159] | < 100 |
| Cc1ncccc1-c1ccc2c(c1)-n1cc(-c3ccnn3C)cc1C(=O)N(C)C21CC1 [Example 160] | < 100 |
| CCc1ncccc1-c1ccc2c(c1)-n1cc(-c3ccnn3C)cc1C(=O)N(C)C21CC1 [Example 163] | < 100 |
| Cc1ncccc1-c1ccc2c(c1)-n1cc(-c3ccccc3)nc1C(=O)N(C)C2 [Example 166, 5-Methyl-9-(2-methylpyridin-3-yl)-2-phenyl-5,6-dihydro-4H-benzo[f]imidazo[1,2-a][1,4]diazepin-4-one] | 100 to 1000 |
| CCN1Cc2ccc(-c3cccnc3C)cc2-n2cc(-c3ccccc3)nc2C1=O [Example 167, 5-Ethyl-9-(2-methylpyridin-3-yl)-2-phenyl-5,6-dihydro-4H-benzo[f]imidazo[1,2-a][1,4]diazepin-4-one] | > 1000 |
| Cc1ncccc1-c1ccc2c(c1)-n1cc(-c3cnco3)cc1C(=O)N(C)C21CC1 [Example 182] | < 100 |
| Cc1ncccc1-c1ccc2c(c1)-n1cc(-c3cnc[nH]3)cc1C(=O)N(C)C21CC1 [Example 183] | < 100 |
| Cc1ncccc1-c1ccc2c(c1)-n1cc(-c3ncc[nH]3)cc1C(=O)N(C)C21CC1 [Example 184] | < 100 |
| CN1C(=O)c2cc(-c3nnco3)cn2-c2cc(Br)ccc2C12CC2 [Example 189] | > 1000 |
| Cc1ncccc1-c1ccc2c(c1)-n1cc(C(=O)C3CCCC3)cc1C(=O)N(C)C21CC1 [Example 194] | 100 to 1000 |
| CC(=O)c1cc2n(c1)-c1cc(-c3cccnc3C)ccc1C1(CC1)N(C)C2=O [Example 195] | 100 to 1000 |
| Cc1ncccc1-c1ccc2c(c1)-n1cc(CC3CCCC3)cc1C(=O)N(C)C21CC1 [Example 196] | 100 to 1000 |

Further lines, results first:

| EC50 [nM] | SMILES |
| --- | --- |
| > 1000 | CN(C)c1ncccc1-c1ccc2c(c1)-n1cc(-c3ccccc3)cc1C(=O)N(C)C21CC1 [Example 119, 5-Methyl-2-phenyl-9-(2-dimethylamino-pyridin-3-yl)-spiro[benzo[f]pyrrolo[1,2-a][1,4]diazepine-6,1′-cyclopropan]-4(5H)-one] |
| 100 to 1000 | Cc1cc(-c2ccc3c(c2)-n2nc(-c4ccccc4)cc2C(=O)N(C)C32CC2)cc(C)n1 [Example 121, 9-(2,6-Dimethyl-pyridin-4-yl)-5-methyl-2-phenyl-spiro[benzo[f]pyrazolo[1,5-a][1,4]diazepine-6,1′-cyclopropan]-4(5H)-one] |
| 100 to 1000 | Cc1cc(-c2ccc3c(c2)-n2nc(-c4ccccc4)cc2C(=O)N(C)C32CC2)ccn1 [Example 122, 9-(2-Methyl-pyridin-4-yl)-5-methyl-2-phenyl-spiro[benzo[f]pyrazolo[1,5-a][1,4]diazepine-6,1′-cyclopropan]-4(5H)-one] |
| < 100 | Cc1ncccc1-c1ccc2c(c1)-n1nc(-c3ccccc3)cc1C(=O)N(C)C21CC1 [Example 125, 9-(2-Methyl-pyridin-3-yl)-5-methyl-2-phenyl-spiro[benzo[f]pyrazolo[1,5-a][1,4]diazepine-6,1′-cyclopropan]-4(5H)-one] |
| < 100 | Cc1ccc(-c2ccc3c(c2)-n2nc(-c4ccccc4)cc2C(=O)N(C)C32CC2)c(C)n1 [Example 126, 9-(2,6-Dimethyl-pyridin-3-yl)-5-methyl-2-phenyl-spiro[benzo[f]pyrazolo[1,5-a][1,4]diazepine-6,1′-cyclopropan]-4(5H)-one] |
| < 100 | CN1C(=O)c2cc(-c3ccccc3)nn2-c2cc(-c3ccc(N)nc3)ccc2C12CC2 [Example 127, 9-(6-Amino-pyridin-3-yl)-5-methyl-2-phenyl-spiro[benzo[f]pyrazolo[1,5-a][1,4]diazepine-6,1′-cyclopropan]-4(5H)-one] |
| 100 to 1000 | CN1C(=O)c2cc(-c3ccccc3)nn2-c2cc(-c3cccc(Cl)c3)ccc2C12CC2 [Example 130, 9-(3-Chloro-phenyl)-5-methyl-2-phenyl-spiro[benzo[f]pyrazolo[1,5-a][1,4]diazepine-6,1′-cyclopropan]-4(5H)-one] |
| > 1000 | CN1C(=O)c2cc(-c3ccccc3)nn2-c2cc(-c3ccccc3Cl)ccc2C12CC2 [Example 131, 9-(2-Chloro-phenyl)-5-methyl-2-phenyl-spiro[benzo[f]pyrazolo[1,5-a][1,4]diazepine-6,1′-cyclopropan]-4(5H)-one] |
| > 1000 | CN1C(=O)c2cc(-c3ccccc3)nn2-c2cc(-c3ccc(Cl)cc3)ccc2C12CC2 [Example 135, 9-(4-Chloro-phenyl)-5-methyl-2-phenyl-spiro[benzo[f]pyrazolo[1,5-a][1,4]diazepine-6,1′-cyclopropan]-4(5H)-one] |
| < 100 | Cc1ncccc1-c1ccc2c(c1)-n1cc(-c3ccccc3)nc1C(=O)N(C)C21CC1 [Example 140, 9-(2-Methyl-pyridin-3-yl)-5-methyl-2-phenyl-spiro[benzo[f]imidazo[1,2-a][1,4]diazepine-6,1′-cyclopropan]-4(5H)-one] |
| < 100 | Cc1ncccc1-c1ccc2c(c1)-n1cc(-c3cccnc3)cc1C(=O)N(C)C21CC1 [Example 143] |
| < 100 | Cc1ncccc1-c1ccc2c(c1)-n1cc(-c3ccncc3)cc1C(=O)N(C)C21CC1 [Example 145] |
| 100 to 1000 | Cc1ncccc1-c1ccc2c(c1)-n1cc(-c3ccccc3Cl)cc1C(=O)N(C)C21CC1 [Example 147] |
| 100 to 1000 | Cc1ncccc1-c1ccc2c(c1)-n1cc(-c3cccc(Cl)c3)cc1C(=O)N(C)C21CC1 [Example 148] |
| 100 to 1000 | Cc1ncccc1-c1ccc2c(c1)-n1cc(-c3ccc(Cl)cc3)cc1C(=O)N(C)C21CC1 [Example 149] |
| 100 to 1000 | Cc1ncccc1-c1ccc2c(c1)-n1cc(-c3ccc(F)cc3)cc1C(=O)N(C)C21CC1 [Example 150] |
| < 100 | Cc1ncccc1-c1ccc2c(c1)-n1cc(-c3ccccc3F)cc1C(=O)N(C)C21CC1 [Example 151] |
| < 100 | Cc1ncccc1-c1ccc2c(c1)-n1cc(-c3cccc(F)c3)cc1C(=O)N(C)C21CC1 [Example 152] |
| < 100 | CCc1ncccc1-c1ccc2c(c1)-n1cc(-c3ccccc3F)cc1C(=O)N(C)C21CC1 [Example 162] |
| 100 to 1000 | CN1Cc2ccc(-c3ccc(N)nc3)cc2-n2cc(-c3ccccc3)cc2C1=O [Example 165, 9-(6-Amino-pyridin-3-yl)-5-methyl-2-phenyl-5,6-dihydro-benzo[f]pyrrolo[1,2-a][1,4]diazepin-4-one] |
| < 100 | CN1C(=O)c2cc(-c3nnco3)cn2-c2cc(-c3ccc(Cl)nc3)ccc2C12CC2 [Example 191] |
